Source: patent US8124617B2, “Imidazopyridine compounds” (Takeda San Diego, Inc., priority 2005, dated 2012)

Target: T1, glucokinase (residues 12-465 of the human enzyme) (Homo sapiens, UniProt P35557)
T1 construct: FLAG (vector pFLAG-CTC) (C); made in house; host or cells: E. coli DH10b-T1r (pFLAG-CTC)
T1 sequence (P35557 12-465): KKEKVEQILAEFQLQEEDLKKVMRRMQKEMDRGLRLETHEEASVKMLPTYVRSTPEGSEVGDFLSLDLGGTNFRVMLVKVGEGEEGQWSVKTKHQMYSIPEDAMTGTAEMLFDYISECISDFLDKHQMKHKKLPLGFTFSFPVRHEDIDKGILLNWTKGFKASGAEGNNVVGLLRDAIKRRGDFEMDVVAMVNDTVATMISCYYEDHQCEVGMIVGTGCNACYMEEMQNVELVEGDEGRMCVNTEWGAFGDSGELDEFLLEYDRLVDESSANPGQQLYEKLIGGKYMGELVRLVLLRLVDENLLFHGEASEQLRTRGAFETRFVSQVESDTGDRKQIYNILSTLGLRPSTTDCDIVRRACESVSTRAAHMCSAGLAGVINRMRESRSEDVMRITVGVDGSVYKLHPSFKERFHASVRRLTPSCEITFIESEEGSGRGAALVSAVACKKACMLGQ
Test: Measurement of GK activation value (ATP/glucose, luciferase luminescence)
Assay type: biochemical
Conditions: values given as ranges; for EC50: Kact = concentration that displays 50% of the maximal increase in GK activity, room temperature, 60 min, read-out: pKact; for Emax: calculated maximal gain in GK enzyme activity at a saturating concentration of the compound, read-out: % ACTmaxc
Excerpt: Purified glucokinase may be obtained as follows. DNA encoding residues 12-465 of the full-length sequence of the human enzyme may be amplified by PCR and cloned into the HindIII and EcoRI sites of pFLAG-CTC (Sigma). SEQ ID No. 5 corresponds to residues 12-465 of glucokinase.
The expression of recombinant glucokinase protein may be carried out by transformation and growth of DH10b-T1r E. coli cells incorporating the (pFLAG-CTC) plasmid in LB media. Protein expression can be induced in this system by the addition of IPTG to the culture medium.
Recombinant protein may be isolated from cellular extracts by passage over Sepharose Q Fast Flow resin (Pharmacia). This partially purified GK extract may then be further purified by a second passage over Poros HQ10 (Applied Biosystems). The purity of GK may be determined on denaturing SDS-PAGE gel. Purified GK may then be concentrated to a final concentration of 20.0 mg/ml. After flash freezing in liquid nitrogen, the proteins can be stored at −78° C. in a buffer containing 25 mM TRIS-HCl pH 7.6, 50 mM NaCl, and 0.5 mM TCEP.
The assay reaction may be initiated as follows: 4 μl of substrate mixture (12.5 μM ATP and 12.5 mM Glucose) was added to each well of the plate, followed by the addition of 2 μl of activator (2 fold serial dilutions for 11 data points for each activator) containing 10% DMSO. 4 μL of 1.25 nM GK solution may be added to initiate the reaction. The reaction mixture may then be incubated at room temperature for 60 min, and quenched and developed by addition of 10 μL of luciferase reagent. Luminescence intensities of the resulting reaction mixtures may be measured after a 10 min incubation at room temperature. The luminescence intensity may be measured by using the Analyst HT from LJL Biosystems.
pKact and % ACTmax values may be calculated by non-linear curve fitting of the compound concentrations and luminescence intensities to a standard inhibition/activation equation.

SMILES | EC50 | Emax
CC(C)Oc1ccc(OCc2ccccc2)cc1-c1nc2cc(-c3cccc(F)c3)cnc2[nH]1 [Example 71, 2-[5-(benzyloxy)-2-isopropoxyphenyl]-6-(3-fluorophenyl)-3H-imidazo[4,5-b]pyridine] | 398 to 1000 nM | 20 to 29.9%
CC(C)Oc1cc(OCc2ccccc2)cc(-c2nc3cccnc3[nH]2)c1 [Example 158, 2-(3-(benzyloxy)-5-isopropoxyphenyl)-3H-imidazo[4,5-b]pyridine] | 126 to 316 nM | 20 to 29.9%
CC(C)Oc1cc(OCCCc2ccccc2)cc(-c2nc3cccnc3[nH]2)c1 [Example 159, 2-(3-isopropoxy-5-(3-phenylpropoxy)phenyl)-3H-imidazo[4,5-b]pyridine] | 398 to 1000 nM | 20 to 29.9%
CC(C)Oc1cc(OCCc2ccccc2)cc(-c2nc3cccnc3[nH]2)c1 [Example 161, 2-(3-isopropoxy-5-phenethoxyphenyl)-3H-imidazo[4,5-b]pyridine] | < 100 nM | 30 to 49.9%
Cn1ccnc1COc1cc(OCc2ccccc2)cc(-c2nc3cccnc3[nH]2)c1 [Example 162, 2-(3-(benzyloxy)-5-((1-methyl-1H-imidazol-2-yl)methoxy)phenyl)-3H-imidazo[4,5-b]pyridine] | 126 to 316 nM | > 70%
Cn1ccnc1COc1cc(OCc2ccccc2)cc(-c2nc3cc(Br)cnc3[nH]2)c1 [Example 163, 2-(3-(benzyloxy)-5-((1-methyl-1H-imidazol-2-yl)methoxy)phenyl)-6-bromo-3H-imidazo[4,5-b]pyridine] | < 100 nM | 50 to 69.9%
Cn1ccnc1COc1cc(OCCc2ccsc2)cc(-c2nc3cc(Br)cnc3[nH]2)c1 [Example 164, 6-bromo-2-(3-((1-methyl-1H-imidazol-2-yl)methoxy)-5-(2-(thiophen-3-yl)ethoxy)phenyl)-3H-imidazo[4,5-b]pyridine] | 126 to 316 nM | 50 to 69.9%
Cn1ccnc1COc1cc(OCc2ccccc2F)cc(-c2nc3cccnc3[nH]2)c1 [Example 165, 2-(3-(2-fluorobenzyloxy)-5-((1-methyl-1H-imidazol-2yl)methoxy)phenyl)-3H-imidazo[4,5-b]pyridine] | < 100 nM | > 70%
Cn1ccnc1COc1cc(OCc2ccccc2F)cc(-c2nc3cc(Cl)cnc3[nH]2)c1 [Example 166, 6-chloro-2-(3-(2-fluorobenzyloxy)-5-((1-methyl-1H-imidazol-2-yl)methoxy)phenyl)-3H-imidazo[4,5-b]pyridine] | < 100 nM | > 70%
Cn1ccnc1COc1cc(OCc2ccccc2F)cc(-c2nc3cc(Br)cnc3[nH]2)c1 [Example 167, 6-bromo-2-(3-(2-fluorobenzyloxy)-5-((1-methyl-1H-imidazol-2-yl)methoxy)phenyl)-3H-imidazo[4,5-b]pyridine] | < 100 nM | > 70%
Cn1ccnc1COc1cc(OCc2ccccc2F)cc(-c2nc3cc(CCCO)cnc3[nH]2)c1 [Example 168, 3-(2-(3-(2-fluorobenzyloxy)-5-((1-methyl-1H-imidazol-2-yl)methoxy)phenyl)-3H-imidazo[4,5-]pyridin-6-yl)propan-1-ol] | 126 to 316 nM | > 70%
COC[C@@H](C)Oc1cc(OCc2ccccc2F)cc(-c2nc3cccnc3[nH]2)c1 [Example 172, (R)-2-(3-(2-fluorobenzyloxy)-5-(1-methoxypropan-2-yloxy)phenyl)-3H-imidazo[4,5-b]pyridine] | 398 to 1000 nM | 50 to 69.9%
COC[C@@H](C)Oc1cc(OCc2ccccc2F)cc(-c2nc3cc(Cl)cnc3[nH]2)c1 [Example 173, (R)-6-chloro-2-(3-(2-fluorobenzyloxy)-5-(1-methoxypropan-2-yloxy)phenyl)-3H-imidazo[4,5-b]pyridine] | 126 to 316 nM | 50 to 69.9%
COC[C@@H](C)Oc1cc(OCc2ccccc2F)cc(-c2nc3cc(Br)cnc3[nH]2)c1 [Example 174, (R)-6-bromo-2-(3-(2-fluorobenzyloxy)-5-(1-methoxypropan-2-yloxy)phenyl)-3H-imidazo[4,5-b]pyridine] | 126 to 316 nM | 30 to 49.9%
COC[C@H](C)Oc1cc(OCc2ccccc2F)cc(-c2nc3cc(CCCO)cnc3[nH]2)c1 [Example 177, (S)-3-(2-(3-(2-fluorobenzyloxy)-5-(1-methoxypropan-2-yloxy)phenyl)-3H-imidazo[4,5-b]pyridin-6-yl)propan-1-ol] | 398 to 1000 nM | 20 to 29.9%
COC[C@H](C)Oc1cc(Oc2ccc(S(C)(=O)=O)cc2)cc(-c2nc3cccnc3[nH]2)c1 [Example 181, (S)-2-(3-(1-methoxypropan-2-yloxy)-5-(4-(methylsulfonyl)phenoxy)phenyl)-3H-imidazo[4,5-b]pyridine] | 398 to 1000 nM | > 70%
Brc1cnc2[nH]c(-c3ccccc3Oc3ccccc3)nc2c1 [Example 188, 6-bromo-2-(2-phenoxyphenyl)-3H-imidazo[4,5-b]pyridine] | 398 to 1000 nM | 30 to 49.9%
CC(C)Oc1ccc(/C=C/c2ccccc2)cc1-c1nc2cccnc2[nH]1 [Example 196, (E)-2-(2-isopropoxy-5-styrylphenyl)-3H-imidazo[4,5-b]pyridine] | 398 to 1000 nM | > 70%
Cn1ccnc1CNc1cc(NS(=O)(=O)c2ccccc2)cc(-c2nc3cc(Br)cnc3[nH]2)c1 [Example 213, N-(3-(6-bromo-3H-imidazo[4,5-b]pyridin-2-yl)-5-((1-methyl-1H-imidazol-2-yl)methylamino)phenyl)benzenesulfonamide] | 126 to 316 nM | 30 to 49.9%
Cn1ccnc1CNc1cc(NS(C)(=O)=O)cc(-c2nc3cc(Br)cnc3[nH]2)c1 [Example 214, N-(3-(6-bromo-3H-imidazo[4,5-b]pyridin-2-yl)-5-((1-methyl-1H-imidazol-2-yl)methylamino)phenyl)methanesulfonamide] | 398 to 1000 nM | 30 to 49.9%
COc1ccc(OCc2ccccc2)cc1-c1nc2cc(Br)cnc2[nH]1 [Example 243, 2-(5-(benzyloxy)-2-methoxyphenyl)-6-bromo-3H-imidazo[4,5-b]pyridine] | 126 to 316 nM | 30 to 49.9%
Brc1cnc2[nH]c(-c3ccccc3Oc3cccnc3)nc2c1 [Example 244, 6-bromo-2-(2-(pyridin-3-yloxy)phenyl)-3H-imidazo[4,5-b]pyridine] | 398 to 1000 nM | 20 to 29.9%
Fc1ccccc1COc1cc(Oc2ncccn2)cc(-c2nc3cc(Br)cnc3[nH]2)c1 [Example 245, 6-bromo-2-(3-(2-fluorobenzyloxy)-5-(pyrimidin-2-yloxy)phenyl)-3H-imidazo[4,5-b]pyridine] | 398 to 1000 nM | > 70%
COc1ccc(/C=C/c2ccncc2)cc1-c1nc2cccnc2[nH]1 [Example 246, (E)-2-(2-methoxy-5-(2-(pyridin-4-yl)vinyl)phenyl)-3H-imidazo[4,5-b]pyridine] | 398 to 1000 nM | 30 to 49.9%
